Patent US10259810B2, “N-sulfonylated pyrazolo[3,4-b]pyridin-6-carboxamides and method of use” (AbbVie S.à.r.l., priority 2015, dated 2019)
Where two headings read alike, the source gives them in different places.

Columns and labels:
Type in all cases: cell-based
[1] = target: T1, ΔF508-CFTR (Homo sapiens, UniProt P13569, DEL508-508); assay: CFTR cell surface levels using HRP-tagged ΔF508-CFTR expressing CFBE cells, intrinsic corrector capacity; set-up: % Activation: concentration or dose not given beside the values; conditions: HRP-tagged ΔF508-CFTR expressing CFBE41o- cells, compound alone (intrinsic corrector capacity), 20 hours at 33° C.; for EC50: read-out: EC50
T1 construct: host or cells: CFBE41o-, doxycycline-inducible
Procedure, shortened: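 Read-out: chemiluminescent HRP activity of ECL4-HRP-tagged ΔF508-CFTR at the cell surface, 15 min substrate in dark. Normalized as 100×(sample−DMSO)/(positive control−DMSO).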

[2] = target: T2, CFTR ΔF508 (Homo sapiens, UniProt P13569, DEL508-508); assay: Chronic TECC assay, primary bronchial epithelial cells of CF patients homozygous for CFTR ΔF508 (corrector, co-corrector and potentiator); conditions: chronic TECC; for % Activity at 1 μM (Ieq*) / % Activity at 1 μM (AUC**): test compound at 1 μM
T2 construct: bronchial epithelial cells isolated from CF patients homozygous for the CFTR ΔF508 mutation; McGill University; Asterand; University of North Carolina hAEC-CF; host or cells: primary human bronchial epithelial cells from CF patients homozygous for ΔF508, differentiated at air-liquid interface
Protocol: Primary Bronchial Epithelial Cells Protocol
The TECC (Tranepithelial Clamp Circuit, EP-design) assay measures the functionality of the cystic fibrosis Transmembrane Conductance regulator (CFTR) by measuring the short circuit current (Isc) generated over the basolateral and apical membrane of lung epithelial cells. In TECC the transepithelial potential PD and transepithelial resistance (Rt) are measured in an open circuit and transformed to Ieq using Ohm's law. 24 Wells can be measured simultaneously allowing a higher throughput compared to Ussing chambers.
For this purpose, bronchial epithelial cells isolated from CF patients homozygous for the CFTR ΔF508 mutation (hAEC-CF, Epithelix, Geneva, Switzerland; McGill University, Montreal, Qc; Asterand, Detroit, Mich.; University of North Carolina, Chapel Hill, N.C.) are plated on type IV collagen-coated Transwell® supports (Costar).
For electrophysiological recording of the “chronic” experiments, the human airway epithelia are mounted in the TECC heating plate for electrophysiological measurement and kept at 37° C. The epithelia are bathed in a NaCl-Ringer solution (120 mM NaCl, 25 mM NaHCO3, 1.2 mM CaCl2, 1.2 mM MgCl2, 0.8 mM KH2PO4, 0.8 mM K2HPO4, pH 7.4, 5 mM glucose) on both the basolateral and apical sides. Test compounds (corrector, co-corrector, 4-[(2R,4R)-4-({[1-(2,2-difluoro-1,3-benzodioxol-5-yl)cyclopropyl]carbonyl}amino)-7-(difluoromethoxy)-3,4-dihydro-2H-chromen-2-yl]benzoic acid, and potentiator, N-(3-carbamoyl-5,5,7,7-tetramethyl-4,7-dihydro-5H-thieno[2,3-c]pyran-2-yl)-1H-pyrazole-5-carboxamide), are re-added to the recording solution prior to measurement. […] Apical amiloride is used to inhibit the endogenous ENaC currents while forskolin is applied on both apical and basolateral side to stimulate CFTR. Measurements are done during a 20 minute timeframe with recordings every 2 minutes. The increase in Ieq is used as a measure for the increased CFTR activity, EC50 values can be generated by measuring impact of different concentrations of compound on Ieq on primary cells, for this purpose each transwell is treated with a different compound concentration. […] Raw data were normalized to percentage activity values using the equation: 100×(Sample−Negative control)/(Positive control−Negative Control).

[3] = target: T1, ΔF508-CFTR; assay: CFTR cell surface levels using HRP-tagged ΔF508-CFTR expressing CFBE cells, in the presence of a co-corrector; conditions: HRP-tagged ΔF508-CFTR CFBE cells, in the presence of 3 μM co-corrector; for EC50: read-out: EC50
Procedure, shortened: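 Chemiluminescent read-out of surface HRP (15 min, dark) after PBS washes. Activity is normalized as 100×(sample−DMSO)/(3 μM co-corrector alone−DMSO).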

[4] = Ieq = calculations based on the maximum current, read-out: EC50 (nM) (Ieq*)
[5] = Ieq = calculations based on the maximum current
[6] = AUC = full area under the curve upon forskolin stimulation

T2 sequence (P13569 with tags, fused parts or gaps DEL508-508): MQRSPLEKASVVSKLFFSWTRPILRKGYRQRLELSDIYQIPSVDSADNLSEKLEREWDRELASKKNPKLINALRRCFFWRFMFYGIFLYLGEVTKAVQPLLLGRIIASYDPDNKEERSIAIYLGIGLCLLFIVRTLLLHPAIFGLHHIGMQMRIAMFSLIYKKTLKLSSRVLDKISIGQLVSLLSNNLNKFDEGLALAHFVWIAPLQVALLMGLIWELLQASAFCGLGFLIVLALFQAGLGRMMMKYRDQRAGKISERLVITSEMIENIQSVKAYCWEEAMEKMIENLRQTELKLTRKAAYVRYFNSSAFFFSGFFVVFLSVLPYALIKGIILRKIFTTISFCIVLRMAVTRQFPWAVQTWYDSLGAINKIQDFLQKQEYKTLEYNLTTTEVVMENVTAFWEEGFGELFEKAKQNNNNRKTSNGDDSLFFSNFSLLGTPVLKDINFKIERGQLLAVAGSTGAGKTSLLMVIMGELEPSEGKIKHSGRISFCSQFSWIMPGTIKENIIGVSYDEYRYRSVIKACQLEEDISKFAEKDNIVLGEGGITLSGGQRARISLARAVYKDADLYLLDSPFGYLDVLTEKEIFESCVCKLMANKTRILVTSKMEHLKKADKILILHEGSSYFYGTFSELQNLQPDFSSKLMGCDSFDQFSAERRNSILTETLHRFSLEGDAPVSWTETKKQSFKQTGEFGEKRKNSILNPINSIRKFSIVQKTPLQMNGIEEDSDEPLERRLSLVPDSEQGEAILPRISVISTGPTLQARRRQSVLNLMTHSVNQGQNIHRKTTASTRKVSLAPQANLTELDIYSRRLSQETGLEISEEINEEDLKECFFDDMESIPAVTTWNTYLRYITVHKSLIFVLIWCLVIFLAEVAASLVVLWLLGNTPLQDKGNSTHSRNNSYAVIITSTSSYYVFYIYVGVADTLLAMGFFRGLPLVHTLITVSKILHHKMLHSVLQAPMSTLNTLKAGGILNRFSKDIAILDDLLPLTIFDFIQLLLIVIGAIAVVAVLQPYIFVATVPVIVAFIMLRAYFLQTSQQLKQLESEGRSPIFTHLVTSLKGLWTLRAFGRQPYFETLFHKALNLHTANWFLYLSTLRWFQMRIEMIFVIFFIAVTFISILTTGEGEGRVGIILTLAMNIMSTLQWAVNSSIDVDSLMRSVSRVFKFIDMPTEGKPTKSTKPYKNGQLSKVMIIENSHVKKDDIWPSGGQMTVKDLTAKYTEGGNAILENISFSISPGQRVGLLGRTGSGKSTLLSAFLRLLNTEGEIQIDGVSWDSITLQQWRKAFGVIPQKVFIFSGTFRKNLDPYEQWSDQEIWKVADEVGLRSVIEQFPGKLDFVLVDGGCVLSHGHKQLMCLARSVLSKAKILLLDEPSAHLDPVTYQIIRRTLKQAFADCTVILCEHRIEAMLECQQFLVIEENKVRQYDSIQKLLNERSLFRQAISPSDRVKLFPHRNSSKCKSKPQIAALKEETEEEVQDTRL
T1 sequence (P13569 with tags, fused parts or gaps DEL508-508): as above

Structure (SMILES) | % Activation [1] | EC50 [1] | EC50 [2, 4] | % Activity at 1 μM (Ieq*) [2, 5] | % Activation [3] | EC50 [3] | % Activity at 3 μM (AUC**) ([2]; test compound at 3 μM, AUC = full area under the curve upon forskolin stimulation) | EC50 ([2]; AUC = full area under the curve upon forskolin stimulation, read-out: EC50 (nM) (AUC**)) | % Activity at 1 μM (AUC**) [2, 6]
CCS(=O)(=O)NC(=O)c1cc(-c2cnc(N(C)C)nc2)c2c(C(C)C)nn(-c3cccc(N4CCOCC4)c3)c2n1 [Compound 30, 4-[2-(dimethylamino)pyrimidin-5-yl]-N-(ethanesulfonyl)-1-[3-(morpholin-4-yl)phenyl]-3-(propan-2-yl)-1H-pyrazolo[3,4-b]pyridine-6-carboxamide] | 369.93% | 436 nM | < 30 nM | 450% | 580.97% | 215 nM |  |  | 
CC(C)c1nn(-c2ccccc2)c2nc(C(=O)NS(C)(=O)=O)cc(-c3ccc(N4CCOCC4)nc3)c12 [Compound 34, N-(methanesulfonyl)-4-[6-(morpholin-4-yl)pyridin-3-yl]-1-phenyl-3-(propan-2-yl)-1H-pyrazolo[3,4-b]pyridine-6-carboxamide] | 292.95% | 611 nM | < 30 nM | 270% | 462.55% | 356 nM |  |  | 
CN(c1ccc(-c2cc(C(=O)NS(C)(=O)=O)nc3c2c(C2CCC2)nn3-c2ccccc2)cn1)C1CCOCC1 [Compound 74, 3-cyclobutyl-N-(methanesulfonyl)-4-{6-[methyl(oxan-4-yl)amino]pyridin-3-yl}-1-phenyl-1H-pyrazolo[3,4-b]pyridine-6-carboxamide] | 253.38% | 549 nM | < 30 nM | 240% | 424.82% | 357 nM |  |  | 
CC(C)c1nn(C2CCCCC2)c2nc(C(=O)NS(C)(=O)=O)cc(-c3ccc(N4CCC(C#N)CC4)cc3)c12 [Compound 80, 4-[4-(4-cyanopiperidin-1-yl)phenyl]-1-cyclohexyl-N-(methanesulfonyl)-3-(propan-2-yl)-1H-pyrazolo[3,4-b]pyridine-6-carboxamide] | 258.38% | 436 nM | 19.3 nM | 250% | 457.5% | 389 nM |  |  | 
CC(C)c1nn(-c2cccc(N3CCOCC3)c2)c2nc(C(=O)NS(C)(=O)=O)cc(-c3ccc(N4CCC(C#N)CC4)nc3)c12 [Compound 85, 4-[6-(4-cyanopiperidin-1-yl)pyridin-3-yl]-N-(methanesulfonyl)-1-[3-(morpholin-4-yl)phenyl]-3-(propan-2-yl)-1H-pyrazolo[3,4-b]pyridine-6-carboxamide] | 426.04% | 421 nM | > 1000 nM | 120% | 570.16% | 232 nM |  |  | 
COCCN(C)c1ccc(-c2cc(C(=O)NS(C)(=O)=O)nc3c2c(C(C)C)nn3-c2cccc(N3CCOCC3)c2)cn1 [Compound 86, N-(methanesulfonyl)-4-{6-[(2-methoxyethyl)(methyl)amino]pyridin-3-yl}-1-[3-(morpholin-4-yl)phenyl]-3-(propan-2-yl)-1H-pyrazolo[3,4-b]pyridine-6-carboxamide] | 329.92% | 637 nM | 30 nM | 210% | 489.56% | 255 nM |  |  | 
CC(C)c1nn(-c2cccc(N3CCOCC3)c2)c2nc(C(=O)NS(C)(=O)=O)cc(-c3ccc(N(C)C4CCOCC4)nc3)c12 [Compound 87, N-(methanesulfonyl)-4-{6-[methyl(oxan-4-yl)amino]pyridin-3-yl}-1-[3-(morpholin-4-yl)phenyl]-3-(propan-2-yl)-1H-pyrazolo[3,4-b]pyridine-6-carboxamide] | 422.84% | 409 nM | < 30 nM | 150% | 623.62% | 456 nM |  |  | 
CC(C)c1nn(-c2cccc(N(C)C)c2)c2nc(C(=O)NS(C)(=O)=O)cc(-c3cnc(N(C)C4CCOCC4)nc3)c12 [Compound 91, 1-[3-(dimethylamino)phenyl]-N-(methanesulfonyl)-4-{2-[methyl(oxan-4-yl)amino]pyrimidin-5-yl}-3-(propan-2-yl)-1H-pyrazolo[3,4-b]pyridine-6-carboxamide] | 388.15% | 382 nM | < 30 nM | 250% | 619.45% | 891 nM |  |  | 
CC1CN(c2ccc(-c3cc(C(=O)NS(C)(=O)=O)nc4c3c(C(C)C)nn4C3CCCCC3)cn2)CC(C)O1 (centres unmarked) [Compound 93, 1-cyclohexyl-4-[6-(2,6-dimethylmorpholin-4-yl)pyridin-3-yl]-N-(methanesulfonyl)-3-(propan-2-yl)-1H-pyrazolo[3,4-b]pyridine-6-carboxamide] | 224.23% | 501 nM | < 30 nM | 220% | 456.5% | 270 nM |  |  | 
CC(C)c1nn(-c2cccc(N(C)C)c2)c2nc(C(=O)NS(C)(=O)=O)cc(-c3cnc(N4CCC(C#N)CC4)nc3)c12 [Compound 95, 4-[2-(4-cyanopiperidin-1-yl)pyrimidin-5-yl]-1-[3-(dimethylamino)phenyl]-N-(methanesulfonyl)-3-(propan-2-yl)-1H-pyrazolo[3,4-b]pyridine-6-carboxamide] | 355.6% | 838 nM | 10 nM | 180% | 611.7% | 649 nM |  |  | 
CN(C)S(=O)(=O)NC(=O)c1cc(OCC2CCOCC2)c2c(C3CCC3)nn(-c3ccccc3)c2n1 [Compound 334, 3-cyclobutyl-N-(dimethylsulfamoyl)-4-[(oxan-4-yl)methoxy]-1-phenyl-1H-pyrazolo[3,4-b]pyridine-6-carboxamide] | 121.75% | 167 nM |  |  |  |  | 345.13% |  | 
CS(=O)(=O)NC(=O)c1cc(N2CCC(N3CCOCC3)CC2)c2c(C3CCC3)nn(-c3ccc(F)cc3)c2n1 [Compound 421, 3-cyclobutyl-1-(4-fluorophenyl)-N-(methanesulfonyl)-4-[4-(morpholin-4-yl)piperidin-1-yl]-1H-pyrazolo[3,4-b]pyridine-6-carboxamide] |  |  |  |  |  |  |  | 45.6 nM | 193.3333%
COCCN1CCN(c2ccc(-c3cc(C(=O)NS(=O)(=O)N(C)C)nc4c3c(C3CCC3)nn4C3CCCCC3)cn2)CC1 [Compound 552, 3-cyclobutyl-1-cyclohexyl-N-(dimethylsulfamoyl)-4-{6-[4-(2-methoxyethyl)piperazin-1-yl]pyridin-3-yl}-1H-pyrazolo[3,4-b]pyridine-6-carboxamide] |  |  |  |  | 364.2% | 130 nM |  |  | 235.2857%
CC(C)Oc1nn(C2CCCCC2)c2nc(C(=O)NS(=O)(=O)N(C)C)cc(-c3ccc(N4CCN(C5CC5)CC4)cc3)c12 [Compound 559, 1-cyclohexyl-4-[4-(4-cyclopropylpiperazin-1-yl)phenyl]-N-(dimethylsulfamoyl)-3-[(propan-2-yl)oxy]-1H-pyrazolo[3,4-b]pyridine-6-carboxamide] |  |  |  |  | 291.03% | 154 nM |  |  | 231.6378%
